By inhibition is commonly meant the percentage by which the read-out fell short of the control.

The subject of the assay is type III secretion in S. typhimurium. In words: microbe, parasite or virus in culture. The assay is classed as cell-based, Salmonella enterica serovar Typhimurium. As to conditions: for inhibition at 330 µM / inhibition at 3.3 µM / inhibition at 33 µM: read-out: % inhibition of SipA secretion; for % Secretion: type III secretion in S. typhimurium, SipA secretion by Western blot. On the technique in general: Immunoblotting shows a protein as a band on a membrane.

Where [1] appears, read: Salmonella enterica, TYPHIMURIUM

Turning to `COc1cc(/C=C2\S/C(=N\c3ccccc3)N([C@@H](Cc3ccc(-c4ccccc4)cc3)C(=O)N[C@@H](CCCNC(=N)N)C(N)=O)C2=O)cc(OC)c1O` [compound 96], the “% inhibition of SipA secretion” value was 100 (330) 95 (33) 54 (3.3) % (3.3 µM), 100 (330) 95 (33) 54 (3.3) % (33 µM) and 100 (330) 95 (33) 54 (3.3) % (330 µM).

`COc1cc(/C=C2\S/C(=N\c3ccccc3)N([C@H](C)C(=O)N[C@@H](Cc3c[nH]c4ccccc34)C(N)=O)C2=O)cc(OC)c1O` [compound 52, (R)-N-((S)-1-amino-3-(1H-indol-3-yl)-1-oxopropan-2-yl)-2-((2Z,5Z)-5-(4-hydroxy-3,5-dimethoxybenzylidene)-4-oxo-2-(phenylimino)thiazolidin-3-yl)propanamide]: the inhibition at 330 µM under setting [1] came out at 100%.

On to `COc1cc(/C=C2\S/C(=N\c3ccc(CN)cc3)N(c3ccccc3)C2=O)cc(OC)c1O` [compound 46, (2Z,5Z)-2-(4-(aminomethyl)phenylimino)-5-(4-hydroxy-3,5-dimethoxybenzyldene)-3-phenylthiazolidin-4-one], for which the “% inhibition of SipA secretion” value is 7% (3.3 μM, Western blot); 16% (33 μM, Western blot); 85% (330 μM, Western blot).

As to `COc1cc(/C=C2\S/C(=N\c3ccc(CN)cc3)N(c3ccccc3)C2=O)cc(OC)c1O` [compound 47, (2Z,5Z)-3-(4-(aminomethyl)phenylimino)-5-(4-hydroxy-3,5-dimethoxybenzyldene)-2-phenylthiazolidin-4-one], the “% inhibition of SipA secretion” value is, setting by setting: (3.3 μM, Western blot) 8%; (33 μM, Western blot) 35%; (330 μM, Western blot) 100%.

As for `COc1cc(/C=C2\S/C(=N\c3ccccc3)N([C@@H](CC3CNc4ccccc43)C(=O)N[C@@H](CCCNC(=N)N)C(N)=O)C2=O)cc(OC)c1O` (stereo partly shown) [compound 98], the “% inhibition of SipA secretion” value was determined as 2% (3.3 μM, Western blot); 12% (33 μM, Western blot); 100% (330 μM, Western blot).

As for `COc1cc(/C=C2\S/C(=N\c3ccccc3)N(CCCC(=O)OC(C)(C)C)C2=O)cc(OC)c1O` [compound 60, t-Butyl-4-((2Z,5Z)-5-(4-hydroxy-3,5-dimethoxybenzylidene)-4-oxo-2-(phenylimino)thiazolidin-3-yl)butanoate], under setting [1], the inhibition at 3.3 µM was determined as 35% and the inhibition at 330 µM amounted to 90%.

In the case of `COc1cc(/C=C2\S/C(=N\c3ccccc3)N([C@@H](C)C(=O)N[C@@H](Cc3ccc(O)cc3)C(N)=O)C2=O)cc(OC)c1O` [compound 50, (S)-N-((S)-1-amino-3-(4-hydroxyphenyl)-1-oxopropan-2-yl)-2-((2Z,5Z)-5-(4-hydroxy-3,5-dimethoxybenzylidene)-4-oxo-2-(phenylimino)thiazolidin-3-yl)propanamide], under setting [1], the inhibition at 330 µM was found to be 90%.

As to `COc1cc(/C=C2\S/C(=N\c3ccccc3)N([C@@H](CCCN)C(=O)N[C@@H](Cc3ccc(-c4ccccc4)cc3)C(N)=O)C2=O)cc(OC)c1O` [compound 91], the “% inhibition of SipA secretion” value (3.3 µM) is given as 100 (330) 66 (33) 3 (3.3) %, the “% inhibition of SipA secretion” value (33 µM) is 100 (330) 66 (33) 3 (3.3) % and the “% inhibition of SipA secretion” value (330 µM) is given as 100 (330) 66 (33) 3 (3.3) %.

For `COc1cc(/C=C2\S/C(=N\c3ccccc3)N([C@@H](C)C(=O)N[C@@H](CCCNC(=N)N)C(N)=O)C2=O)cc(OC)c1O` [compound 56, (S)-5-Guanidino-2-((S)-2-((2Z,5Z)-5-(4-hydroxy-3,5-dimethoxybenzylidene)-4-oxo-2-(phenylimino)thiazolidin-3-yl)propanamido)pentanamide], under setting [1], the inhibition at 33 µM was found to be 1% and the inhibition at 330 µM was 100%.

In the case of `COc1cc(/C=C2\SC(=Nc3ccccc3)N([C@@H](CCCN)C(=O)N[C@@H](CC3CNc4ccccc43)C(N)=O)C2=O)cc(OC)c1O` (stereo partly drawn) [compound 90, (S)-5-amino-N-((S)-1-amino-3-(indolin-3-yl)-1-oxopropan-2-yl)-2-((5Z)-5-(4-hydroxy-3,5-dimethoxybenzylidene)-4-oxo-2-(phenylimino)thiazolidin-3-yl)pentanamide], under setting [1], the inhibition at 3.3 µM turned out to be 20%, the inhibition at 33 µM came to 22% and the inhibition at 330 µM was 100%.

Take `COc1cc(/C=C2\S/C(=N\c3ccccc3)N([C@H](C)C(=O)N[C@@H](CCCNC(=N)N)C(N)=O)C2=O)cc(OC)c1O` [compound 85, (S)-5-guanidino-2-((R)-2-((2Z,5Z)-5-(4-hydroxy-3,5-dimethoxybenzylidene)-4-oxo-2-(phenylimino)thiazolidin-3-yl)propanamido)pentanamide]: under setting [1], the inhibition at 33 µM came out at 31% and the inhibition at 330 µM turned out to be 99%.

`COc1cc(/C=C2\S/C(=N\c3ccccc3)N(CCCC(=O)O)C2=O)cc(OC)c1O` [compound 61, 4-((2Z,5Z)-5-(4-hydroxy-3,5-dimethoxybenzylidene)-4-oxo-2-(phenylimino)thiazolidin-3-yl)butanoic acid]: under setting [1], the inhibition at 3.3 µM was determined as 70% and the inhibition at 330 µM is 74%.

Turning to `COc1cc(/C=C2\SC(=N)NC2=O)cc(OC)c1O` [Compound 6], the “% Secretion” value is listed as 64 ± 4%.

For the molecule `COc1cc(/C=C2\S/C(=N\c3ccccc3)N([C@@H](C)C(=O)N[C@@H](CCCN)C(N)=O)C2=O)cc(OC)c1O` [compound 54, (S)-5-amino-2-((S)-2-((2Z,5Z)-5-(4-hydroxy-3,5-dimethoxybenzylidene)-4-oxo-2-(phenylimino)thiazolidin-3-yl)propanamido)pentanamide], the inhibition at 330 µM under setting [1] was 94%.

Turning to `COc1cc(/C=C2\S/C(=N\c3ccccc3)N([C@@H](C)C(=O)N[C@@H](CCCNC(=N)N)C(N)=O)C2=O)cc(OC)c1O` [Compound 2], the “% Secretion” value was 0 ± 0%. For the same molecule, the “SipA detected in the supernate” value (3.8 μM, Western blot) is listed as “minimal SipA was detected”. Also, the inhibition at 38 µM (Salmonella enterica, TYPHIMURIUM, read-out: inhibition of detectable secreted SipA) amounted to 100%.

Take `O=C1CS/C(=N\c2ccccc2)N1c1ccccc1` [Compound 8]: the “% Secretion” value turned out to be 62 ± 3%.

`COc1cc(CC2SC(=N)NC2=O)cc(OC)c1O` (stereo not shown) [Compound 9]: the “% Secretion” value worked out at 72 ± 0%.

For `COc1cc(/C=C2\S/C(=N\c3ccccc3)N(C(CCCNC(=N)N)C(=O)N3CSC[C@H]3C(N)=O)C2=O)cc(OC)c1O` (stereo partly drawn) [compound 94, (R)-3-(5-guanidino-2-((2Z,5Z)-5-(4-hydroxy-3,5-dimethoxybenzylidene)-4-oxo-2-(phenylimino)thiazolidin-3-yl)pentanoyl)thiazolidine-4-carboxamide], under setting [1], the inhibition at 3.3 µM was determined as 3%, the inhibition at 33 µM is 7% and the inhibition at 330 µM was found to be 89%.

As for `COc1cc(/C=C2\S/C(=N\c3ccccc3)N(C(C)C(=O)N[C@@H](Cc3c[nH]c4ccccc34)C(N)=O)C2=O)cc(OC)c1O` (stereo partly drawn) [compound 51, N-((S)-1-amino-3-(1H-indol-3-yl)-1-oxopropan-2-yl)-2-((2Z,5Z)-5-(4-hydroxy-3,5-dimethoxybenzylidene)-4-oxo-2-(phenylimino)thiazolidin-3-yl)propanamide], the inhibition at 330 µM under setting [1] is 100%.

Take `COc1cc(/C=C2\S/C(=N\c3ccccc3)N([C@@H](CCCNC(=N)N)C(=O)N[C@@H](C)C(N)=O)C2=O)cc(OC)c1O` [compound 87, (S)-N-((S)-1-amino-1-oxopropan-2-yl)-5-guanidino-2-((2Z,5Z)-5-(4-hydroxy-3,5-dimethoxybenzylidene)-4-oxo-2-(phenylimino)thiazolidin-3-yl)pentanamide]: under setting [1], the inhibition at 3.3 µM was determined as 0%, the inhibition at 33 µM is 38% and the inhibition at 330 µM came to 100%.

Consider `O=C1/C(=C/c2ccccc2)S/C(=N\c2ccccc2)N1c1ccccc1` [Compound 7], for which the “% Secretion” value turned out to be 90 ± 2%.

In the case of `COc1cc(/C=C2\S/C(=N\c3ccccc3)N(C(Cc3ccncc3)C(=O)N[C@@H](CCCNC(=N)N)C(N)=O)C2=O)cc(OC)c1O` (stereo partly drawn) [compound 95, (S)-5-guanidino-2-(2-((2Z,5Z)-5-(4-hydroxy-3,5-dimethoxybenzylidene)-4-oxo-2-(phenylimino)thiazolidin-3-yl)-3-(pyridin-4-yl)propanamido)pentanamide], under setting [1], the inhibition at 33 µM came to 8% and the inhibition at 330 µM came to 89%.

As to `COc1ccc(N2C(=O)/C(=C/c3cc(OC)c(O)c(OC)c3)S/C2=N\c2ccccc2)cc1` [Compound 3], the “% Secretion” value is reported as 0 ± 0%.

Take `COc1cc(/C=C2\S/C(=N\c3ccccc3)N(CC(=O)O)C2=O)cc(OC)c1O` [compound 57, 2-((2Z,5Z)-5-(4-hydroxy-3,5-dimethoxybenzylidene)-4-oxo-2-(phenylimino)thiazolidin-3-yl)acetic acid]: under setting [1], the inhibition at 3.3 µM stood at 51% and the inhibition at 330 µM was 100%.

In the case of `COc1cc(/C=C2\S/C(=N\c3ccccc3)N([C@@H](C)C(=O)N[C@@H](C)C(N)=O)C2=O)cc(OC)c1O` [compound 49, (S)-N-((S)-1-amino-1-oxopropan-2-yl)-2-((2Z,5Z)-5-(4-hydroxy-3,5-dimethoxybenzylidene)-4-oxo-2-(phenylimino)thiazolidin-3-yl)propanamide], under setting [1], the inhibition at 33 µM is 26% and the inhibition at 330 µM was determined as 94%.

Regarding `COc1cc(/C=C2\S/C(=N\c3ccccc3)N([C@H](C)C(=O)N[C@@H](CCCN)C(N)=O)C2=O)cc(OC)c1O` [compound 84, (S)-5-amino-2-((R)-2-((2Z,5Z)-5-(4-hydroxy-3,5-dimethoxybenzylidene)-4-oxo-2-(phenylimino)thiazolidin-3-yl)propanamido)pentanamide], under setting [1], the inhibition at 3.3 µM was found to be 5% and the inhibition at 330 µM was determined as 99%.

As to `COc1cc(/C=C2\S/C(=N\c3ccccc3)NC2=O)cc(OC)c1O` [Compound 4], the “% Secretion” value is 9 ± 6%.

`COc1cc(/C=C2\S/C(=N\c3ccccc3)N(C(CCCNC(=N)N)C(=O)N3Cc4ccccc4C[C@H]3C(N)=O)C2=O)cc(OC)c1O` (stereo partly drawn) [compound 88, (S)-2-(5-guanidino-2-((2Z,5Z)-5-(4-hydroxy-3,5-dimethoxybenzylidene)-4-oxo-2-(phenylimino)thiazolidin-3-yl)pentanoyl)-1,2,3,4-tetrahydroisoquinoline-3-carboxamide]: under setting [1], the inhibition at 33 µM was 0% and the inhibition at 330 µM was 100%.

The values are drawn from patent publication US8252940B2, “5-substituted-2-imino-thiazolidinone compounds and their use as inhibitors of bacterial infection” (University of Washington, priority 2008, dated 2012).
